Where a SMILES comes first, the peptide text is derived from it. Bridges are numbered along the chain shown (N, C = ends).
Columns and labels:
[1] = in vivo; settings: rat; for AUC(0-inf) / C0 / half-life / Cmax / Tmax: male, SD, 0.1 mg/kg
Description: Changes in ANP immunoreactivity concentration in plasma when a native ANP and a chimeric peptide (chimeric ANP) to which a half-life-extension peptide was bestowed were administered into vein of rats were investigated.
As a test system, male rats of an SD strain of 7 weeks age (provided from Nippon Charles River) were subjected to the experiment where one group comprised three rats. […] At that time, a rabbit polyclonal antibody (#8) recognizing a ring part of ANP was used as an antibody and ^125I-[Tyr^28] α-hANP was used as a labeling compound.
Pharmacokinetic parameters were calculated from the resulting changes in immunoreactivity concentrations in plasma. At that time, WinNonlin Professional Ver. 4.0.1 (manufactured by Pharsight Corporation, U.S.A.) was used as the analytical software. Method for the calculation of each parameter is mentioned as follows.
Concentration at time 0 (C0; extrapolated value, ng/mL), area under the curve for concentration in plasma vs. time (AUC; ng.min/mL) and quenching half-life (T½; minute(s)) were calculated as follows. C0 was calculated as a value at time by means of extrapolation from the changes in immunoreactivity concentration in plasma at each blood collection period. AUC was calculated by a trapezoidal method using the immunoreactivity concentrations in plasma at all measuring points (t) and an extrapolated value until the infinitive time was determined. T½ was calculated by means of a least-squares method from the inclination of a straight line connecting several points in a disappearing phase of the immunoreactivity concentration in plasma. In the case of a subcutaneous administration, C0 was not determined but the maximum concentration in plasma (Cmax; ng/mL) and the time reaching the maximum concentration in plasma (Tmax; min) were determined.

[2] = Motilin immunoreactivity concentration in plasma, half-life after intravenous administration (Example 8); settings: male, SD, rat, in vivo, iv, 10 nmol/kg
Description: The experiment was carried out using rats into which polyethylene tube (PE-50 manufactured by Clay Adams) was inserted into thigh artery under an anesthetized condition with Nembutal. As to a test system, male SD strain rats (Nippon Charles River) of 7 weeks age were used where one group comprised 3 rats. Human motilin or a derivative thereof in a dose of 10 nmol/kg was administered into tail vein of the rat and the blood before the administration and until 60 minutes after the administration was periodically collected by a polyethylene tube inserted into the thigh artery. To the collected blood were added EDTA (manufactured by Dojin Laboratories) and aprotinin (manufactured by Bayer) as a stabilizer and an anti-coagulant, respectively and the plasma was separated therefrom by centrifugal separation. Motilin immunoreactivity concentration in plasma was measured by a competitive radioimmunoassay (RIA) (FIG. 8). At that time, a rabbit polyclonal antibody (#870623) which specifically recognizes the amino acid numbers 1 to 12 of native motilin shown by SEQ ID No: 102 was used as an antibody and, as a labeled compound, ^125I-[Tyr^7] human motilin was used.

AUC(0-inf) ([1]; iv) [ng·h/mL]	C0 ([1]; iv) [ng/mL]	half-life ([1]; iv) [min]	AUC(0-inf) ([1]; sc) [ng·h/mL]	Cmax ([1]; sc) [ng/mL]	Tmax ([1]; sc) [min]	half-life ([1]; sc) [min]	concentration in plasma as compared with the native ANP ([1]; iv)	concentration in plasma as compared with the native ANP ([1]; sc)	half-life [2] [min]	Compound
196	1240 ± 71	24 ± 2.5	34	63.3 ± 31.8	5	46.4 ± 8	rising concentration in plasma	rising concentration in plasma		CC[C@H](C)[C@@H]1NC(=O)[C@H](CCCNC(=N)N)NC(=O)[C@H](CC(=O)O)NC(=O)[C@H](CCSC)NC(=O)[C@H](CCCNC(=N)N)NC(=O)CNC(=O)CNC(=O)[C@H](Cc2ccccc2)NC(=O)[C@@H](N)CSSC[C@@H](C(=O)N[C@@H](CC(N)=O)C(=O)N[C@@H](CO)C(=O)N[C@@H](Cc2ccccc2)C(=O)N[C@@H](CCCNC(=N)N)C(=O)N[C@@H](Cc2ccc(O)cc2)C(=O)N[C@H](C(=O)N[C@@H](CCC(N)=O)C(=O)N[C@@H](CCC(N)=O)C(=O)N[C@@H](CCCNC(=N)N)C(=O)N[C@@H](CCCCN)C(=O)N[C@@H](CCC(=O)O)C(=O)N[C@@H](CO)C(=O)N[C@@H](CCCCN)C(=O)N[C@@H](CCCCN)C(=O)N2CCC[C@H]2C(=O)N2CCC[C@H]2C(=O)N[C@@H](C)C(=O)N[C@@H](CCCCN)C(=O)N[C@@H](CC(C)C)C(=O)N[C@@H](CCC(N)=O)C(=O)N2CCC[C@H]2C(=O)N[C@@H](CCCNC(=N)N)C(=O)O)C(C)C)NC(=O)CNC(=O)[C@H](CC(C)C)NC(=O)CNC(=O)[C@H](CO)NC(=O)[C@H](CCC(N)=O)NC(=O)[C@H](C)NC(=O)CNC1=O [Chimeric ANP (A)] (H-CFGGRMDRIGAQSGLGCNSFRYVQQRKESKKPPAKLQPR-OH; disulfide 1-17; N-terminus and C-terminus assumed)
175	1570 ± 361	40 ± 12.4	66.4	64.5 ± 40.7	16.7	57.3 ± 7.1	rising concentration in plasma	rising concentration in plasma		CC[C@H](C)[C@@H]1NC(=O)[C@H](CCCNC(=N)N)NC(=O)[C@H](CC(=O)O)NC(=O)[C@H](CCSC)NC(=O)[C@H](CCCNC(=N)N)NC(=O)CNC(=O)CNC(=O)[C@H](Cc2ccccc2)NC(=O)[C@@H](NC(=O)[C@H](CCCNC(=N)N)NC(=O)[C@@H]2CCCN2C(=O)[C@H](CCC(N)=O)NC(=O)[C@H](CC(C)C)NC(=O)[C@H](CCCCN)NC(=O)[C@H](C)NC(=O)[C@@H]2CCCN2C(=O)[C@@H]2CCCN2C(=O)[C@H](CCCCN)NC(=O)[C@H](CCCCN)NC(=O)[C@H](CO)NC(=O)[C@H](CCC(=O)O)NC(=O)[C@H](CCCCN)NC(=O)[C@H](CCCNC(=N)N)NC(=O)[C@H](CCC(N)=O)NC(=O)[C@H](CCC(N)=O)NC(=O)[C@@H](N)C(C)C)CSSC[C@@H](C(=O)N[C@@H](CC(N)=O)C(=O)N[C@@H](CO)C(=O)N[C@@H](Cc2ccccc2)C(=O)N[C@@H](CCCNC(=N)N)C(=O)N[C@@H](Cc2ccc(O)cc2)C(=O)O)NC(=O)CNC(=O)[C@H](CC(C)C)NC(=O)CNC(=O)[C@H](CO)NC(=O)[C@H](CCC(N)=O)NC(=O)[C@H](C)NC(=O)CNC1=O [Chimeric ANP (B)] (H-VQQRKESKKPPAKLQPRCFGGRMDRIGAQSGLGCNSFRY-OH; disulfide 18-34; N-terminus and C-terminus assumed)
148	1530 ± 442	27.2 ± 3.8	56.7	55.1 ± 10.3	20	37.8 ± 7.8	rising concentration in plasma	rising concentration in plasma		CC[C@H](C)[C@@H]1NC(=O)[C@H](CCCNC(=N)N)NC(=O)[C@H](CC(=O)O)NC(=O)[C@H](CCSC)NC(=O)[C@H](CCCNC(=N)N)NC(=O)CNC(=O)CNC(=O)[C@H](Cc2ccccc2)NC(=O)[C@@H](NC(=O)[C@@H](NC(=O)[C@H](CCC(N)=O)NC(=O)[C@H](CCC(N)=O)NC(=O)[C@H](CCCNC(=N)N)NC(=O)[C@H](CCCCN)NC(=O)[C@H](CCC(=O)O)NC(=O)[C@H](CO)NC(=O)[C@H](CCCCN)NC(=O)[C@H](CCCCN)NC(=O)[C@@H]2CCCN2C(=O)[C@@H]2CCCN2C(=O)[C@H](C)NC(=O)[C@H](CCCCN)NC(=O)[C@H](CC(C)C)NC(=O)[C@H](CCC(N)=O)NC(=O)[C@@H]2CCCN2C(=O)[C@@H](N)CCCNC(=N)N)C(C)C)CSSC[C@@H](C(=O)N[C@@H](CC(N)=O)C(=O)N[C@@H](CO)C(=O)N[C@@H](Cc2ccccc2)C(=O)N[C@@H](CCCNC(=N)N)C(=O)N[C@@H](Cc2ccc(O)cc2)C(=O)O)NC(=O)CNC(=O)[C@H](CC(C)C)NC(=O)CNC(=O)[C@H](CO)NC(=O)[C@H](CCC(N)=O)NC(=O)[C@H](C)NC(=O)CNC1=O [Chimeric ANP (C)] (H-RPQLKAPPKKSEKRQQVCFGGRMDRIGAQSGLGCNSFRY-OH; disulfide 18-34; N-terminus and C-terminus assumed)
									11.6	CC[C@H](C)[C@H](NC(=O)[C@@H]1CCCN1C(=O)[C@@H](NC(=O)[C@@H](N)Cc1ccccc1)C(C)C)C(=O)N[C@@H](Cc1ccccc1)C(=O)N[C@H](C(=O)N[C@@H](Cc1ccc(O)cc1)C(=O)NCC(=O)N[C@@H](CCC(=O)O)C(=O)N[C@@H](CC(C)C)C(=O)N[C@@H](CCC(N)=O)C(=O)N[C@@H](CCCNC(=N)N)C(=O)N[C@H](C(=O)N[C@@H](CCC(N)=O)C(=O)N[C@@H](CCC(N)=O)C(=O)N[C@@H](CCCNC(=N)N)C(=O)N[C@@H](CCCCN)C(=O)N[C@@H](CCC(=O)O)C(=O)N[C@@H](CO)C(=O)NCC(=O)N[C@@H](CCCCN)C(=O)N[C@@H](CCCCN)C(=O)N1CCC[C@H]1C(=O)N1CCC[C@H]1C(=O)N[C@@H](C)C(=O)N[C@@H](CCCCN)C(=O)N[C@@H](CC(C)C)C(=O)N[C@@H](CCC(N)=O)C(=O)N1CCC[C@H]1C(=O)N[C@@H](CCCNC(=N)N)C(=O)O)C(C)C)[C@@H](C)O [Chimeric motilin (I)(MG-i19G)] (H-FVPIFTYGELQRVQQRKESGKKPPAKLQPR-OH; N-terminus and C-terminus assumed)
									11.5	CC[C@H](C)[C@H](NC(=O)[C@@H]1CCCN1C(=O)[C@@H](NC(=O)[C@@H](N)Cc1ccccc1)C(C)C)C(=O)N[C@@H](Cc1ccccc1)C(=O)N[C@H](C(=O)N[C@@H](Cc1ccc(O)cc1)C(=O)NCC(=O)N[C@@H](CCC(=O)O)C(=O)N[C@@H](CC(C)C)C(=O)N[C@@H](CCC(N)=O)C(=O)N[C@@H](CCCNC(=N)N)C(=O)N[C@H](C(=O)N[C@@H](CCC(N)=O)C(=O)N[C@@H](CCC(N)=O)C(=O)N[C@@H](CCCNC(=N)N)C(=O)N[C@@H](CCCCN)C(=O)NCC(=O)NCC(=O)N[C@@H](CCC(=O)O)C(=O)N[C@@H](CO)C(=O)N[C@@H](CCCCN)C(=O)N[C@@H](CCCCN)C(=O)N1CCC[C@H]1C(=O)N1CCC[C@H]1C(=O)N[C@@H](C)C(=O)N[C@@H](CCCCN)C(=O)N[C@@H](CC(C)C)C(=O)N[C@@H](CCC(N)=O)C(=O)N1CCC[C@H]1C(=O)N[C@@H](CCCNC(=N)N)C(=O)O)C(C)C)[C@@H](C)O [Chimeric motilin (II)(MG-i17G2)] (H-FVPIFTYGELQRVQQRKGGESKKPPAKLQPR-OH; N-terminus and C-terminus assumed)
25	993 ± 208		8.92	22.3 ± 5.3	8.3					CC[C@H](C)[C@@H]1NC(=O)[C@H](CCCNC(=N)N)NC(=O)[C@H](CC(=O)O)NC(=O)[C@H](CCSC)NC(=O)[C@H](CCCNC(=N)N)NC(=O)CNC(=O)CNC(=O)[C@H](Cc2ccccc2)NC(=O)[C@@H](NC(=O)[C@H](CO)NC(=O)[C@H](CO)NC(=O)[C@H](CCCNC(=N)N)NC(=O)[C@H](CCCNC(=N)N)NC(=O)[C@H](CC(C)C)NC(=O)[C@@H](N)CO)CSSC[C@@H](C(=O)N[C@@H](CC(N)=O)C(=O)N[C@@H](CO)C(=O)N[C@@H](Cc2ccccc2)C(=O)N[C@@H](CCCNC(=N)N)C(=O)N[C@@H](Cc2ccc(O)cc2)C(=O)O)NC(=O)CNC(=O)[C@H](CC(C)C)NC(=O)CNC(=O)[C@H](CO)NC(=O)[C@H](CCC(N)=O)NC(=O)[C@H](C)NC(=O)CNC1=O [Native ANP, reference compound]

Reference: US8551937B2, “Peptide having an extending action for half-life of object peptide in plasma” (priority 2008, dated 2013)
